According to patent publication US20090297618A1, “COMPOSITION BENEFICIAL FOR VISUOGNOSIS PERSISTENCE AND USE THEREOF” (Zhejiang Medicine Co., Ltd. Xinchang Pharmaceutical Factory, priority 2008, published 2009):

Test system: subjects who use video display terminals (VDT) for long time and tend to have asthenopia
Test: Human feeding test: detection of visuognosis persistence (asthenopia remission test)
Type: in vivo
Details: after feeding tablets 35 days, once per day, two tablets, compared with before feeding; FIG. 1
From the text: As used herein, the term “visuognosis persistence” is an index for evaluating asthenopia. When the cortical excitability in the human brain reduces, the visual analysis function decreases, in the process of eyes fixating at object, invisible duration will increase and visuognosis duration will decrease. […] X^2 test was used for performance indexes.

Molecule `CC1=C[C@H](O)CC(C)(C)[C@H]1/C=C/C(C)=C/C=C/C(C)=C/C=C/C=C(C)/C=C/C=C(C)/C=C/C1=C(C)C[C@@H](O)CC1(C)C` [lutein] has a visuognosis persistence increased of 10.27±8.56%.
